Measured values reported in patent US20120015901A1, “METHODS AND PREPARATIONS FOR PROTECTING CRITICALLY ILL PATIENTS” (priority 2009, published 2012).

Columns and labels:
C57BL/6 mice = experiment: Aging mice with spermidine in drinking water; type: in vivo
Description: Male and female C57BL/6 mice were purchased from the Institut für Labortierkunde und-genetik, Himberg, Austria. All animals were used at an age between 12 and 16 weeks. All mice were kept and treated according to institutional guidelines and Austrian law and the experiments were approved by the responsible governmental commission. For each group, one male and two female mice were housed singly and fed ad libitum with regular food (pellets) and spermidine was supplemented to drinking water in concentrations of 0.3 and 3 mM for 200 days. Controls were given pure drinking water. Drinking water was replaced every 2-3 days and spermidine freshly added from 1 M aqueous stock (spermidine/HCl pH 7.4), which was kept at −20° C. for no longer than one month. […] At the end of the experiment, the animals were anesthetized by ether inhalation, and exsanguinated by heart puncture. Peripheral blood was allowed to clot for 20 min, and serum was obtained by centrifugation at 200 g for 10 min. The spleens and livers (shock frozen in liquid nitrogen and stored at −80° C. upon further use) were immediately excised. Serum was used for determination of free thiol groups by Ellmans' reaction (Ellman (1959) Arch Biochem Biophys 82, 70-77 and Riener et al. (2002) Anal Bioanal Chem 373, 266-276 (2002).) as described previously (Schraml et al. (2007) Exp Gerontol 42, 1072-1078).
Extraction of polyamines from mice liver tissue was performed according to the freeze/thaw-method described by (Minocha et al. (1994)J Plant Growth Regul 13, 187-193) with slight modifications. […]
Polyamines were determined according to the method described previously by Gianotti et al. (V. Gianotti et al. (2008) J Chromatogr A 1185, 296-300.). […]
Polyamines were detected in MRM mode using following transitions: spermidine (m/z 146->72, CE 34 eV), putrescine (m/z 89->72, CE 28 eV), bis(hexamethylene)-triamine as internal standard (m/z 216->100, CE 36 eV). […]

[1] = system: chronologically aged yeast cultures; experiment: Oxygen consumption and fractionation of upper and lower (quiescent) cells; type: cell-based
Protocol: Oxygen consumption was directly determined in 1.7 ml of chronologically aged yeast cultures transferred to a recording chamber by measuring the decline of oxygen concentration under anaerobic conditions using an oxygen electrode. Slopes were calculated over 15 min within the linear decrease of oxygen (minute 2-17) and normalized to living cells as determined by plating on YEPD agar plates.
Cells were cultured in SCD media as described in section on “Yeast Strains and Molecular Biology”. Percoll density gradient centrifugation was performed according to Allen et al. (Allen et al. (2006) J Cell Biol 174, 89-100). Cell counts for each fraction were determined using a CASY cell counter (Innovatis).

[2] = system: histone acetyltransferase activity (HAT-activity); experiment: HAT activity assay, yeast nuclear extract; type: biochemical; conditions: extracts of isolated yeast nuclei; spermidine 100 mM
Protocol: Yeast nuclei were isolated from 200 ml BY4741 wild type culture (grown for 24 h in SCD to stationary phase) as described previously (Buttner et al. (2007), Mol Cell 25, 233-246). Nuclear extract was prepared using nuclear extraction buffer from BioVision's Nuclear/Cytosol Fractionation Kit (Bio Vision, K266-25) without DTT addition, according to the manufacturer's protocol. Incubation time was doubled to 80 min with vortexing every 8 minutes. Protein concentration was determined via Bradford, giving yields of approximately 1 mg/ml protein. Yeast nuclear extract was immediately subjected to HAT activity assays.
For HAT-activity determination the commercially available HAT Activity Colorimetric Assay KIT from BioVision (Bio Vision K332-100) was employed. HAT assays were performed according to the manufacturer's protocol. […] Development of tetrazolium dye was measured by absorption at 440 nm using a GeniosPro plate reader (Tecan). Background readings were done with samples without NADH generating enzyme, giving the nuclear extracts unspecific background activity and eliminate any possible negative effects of spermidine addition on the assay itself. […] Calculated slopes of spermidine treated samples were compared to slopes of untreated samples which were set to a relative activity of 100%.

NCCCCNCCCN [spermidine]
increase of serum level of free thiol groups (C57BL/6 mice; 3 mM spermidine in drinking water for 200 days): ~30%
food and body weight (C57BL/6 mice; 0.3 and 3 mM in drinking water, 200 days (data not shown)): remained unaffected
intracellular spermidine levels in liver cells (C57BL/6 mice; spermidine in drinking water, 200 days): significantly increased
oxygen consumption ([1]; day 20, 4 mM spermidine): reduced their oxygen consumption
quiescence status (upper and lower cell fractions) ([1]; gradient separation, 4 mM spermidine): resemble the status of quiescence
general HAT activity [2]: efficiently inhibited
